What was measured:
[1] = system: VEGF-induced EBD extravasation; assay: VEGF-induced Dermal Extravasation in Guinea Pig (Miles Assay); type: in vivo
Description: VEGF-induced Dermal Extravasation in Guinea Pig (Miles Assay). Male Hartley guinea pigs (300-600 g) were anesthetized with isofluorane, sheared, and given a single dose of drug or the respective vehicle. The guinea pigs were dosed orally unless indicated otherwise in Table 3. Ten minutes prior to the end of drug treatment, guinea pigs were anesthetized with isofluorane, and 0.5% Evans blue dye (EBD) in PBS (13-15 mg/kg dose of EBD) was injected intravenously. After 5 minutes, triplicate intradermal injections of 100 ng rhVEGF165 in 100 μl PBS and of 100 μl PBS alone were administered on the flank. After 20 minutes, each animal was euthanized with Pentosol, and the skin containing the intradermal injection sites was removed for image analysis.
Using an analog video camera coupled to a PC, an image of each trans-illuminated skin sample was captured, and the integrated optical density of each injection site was measured using ImagePro 4. For each skin sample, the difference between the mean optical density of the VEGF sites and mean optical density of the PBS sites is the measure of VEGF-induced EBD extravasation in that animal. These measured values were averaged per study group to determine the mean VEGF-induced EBD extravasation for each experimental condition, and the group means were then compared to assess inhibition of VEGF-induced EBD extravasation in the drug-treated groups relative to the vehicle-treated controls.
(§1) To determine the dose required for 50% inhibition (ID50), the percent inhibition data was plotted as a function of oral dose, using the ‘best-fit’ analysis within MicroSoft Excel software. The ID50 value was verified visually by using the plotted data (horizontal line from 50% y value, at intersection with best-fit line drop vertical line to x axis (dose)).

[2] = system: VEGF induced increases in intracellular calcium levels in HUVEC (human umbilical vein endothelial cells); assay: VEGF Stimulated Ca++ Signal in vitro (FLIPR); type: cell-based; details: VEGF 5 ng/mL; for IC50: 0.01 to 10.0 μM
How it was run: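 IC50 values derive from % inhibition of the VEGF (5 ng/mL) calcium response, taken as max-min fluorescence at 516 nm in Fluo-4-loaded HUVEC. Compounds (0.1% DMSO final) were added 30 min before stimulation, at 10 μM or across 0.01–10.0 μM.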

[3] = biological target: T1, cytoplasmic domain of the human VEGF receptor (VEGFR-2) (Homo sapiens, UniProt P35968); assay: KDR Assay; type: biochemical; details: His-VEGFR-2; 3.6 μM ATP
T1 construct: The cytoplasmic domain of the human VEGF receptor (VEGFR-2) was expressed as a Histidine-tagged fusion protein; Histidine tag
How it was run: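 IC50 taken from blank-corrected OD492 curves of an anti-phosphotyrosine peroxidase ELISA. Reaction: 10 min, 25 °C, 3.6 μM ATP, 50 mM Hepes pH 7.4 with 20 mM MgCl2, 0.1 mM MnCl2 and 5% DMSO, on poly-Glu-Tyr-coated wells, started with insect-cell-expressed His-VEGFR-2 cytoplasmic domain.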

[4] = system: Laser-induced Choroidal Neovascularization (CNV); assay: Laser-induced Choroidal Neovascularization (CNV) in Rat (CNV Assay); type: in vivo
Description: Laser-induced Choroidal Neovascularization (CNV) in Rat (CNV Assay). CNV was induced and quantified in this model as previously described (Edelman and Castro. Exp. Eye Res. 2000; 71:523-533). On day 0, male Brown Norway rats (200-300 g) were anesthetized with 100 mg/kg Ketamine and 10 mg/kg Xylazine, and pupils were dilated with 1% Tropicamide. Using the blue-green setting of a Coherent Novus Argon Laser, 3 laser bums (90 mW for 0.1 s; 100 μm diameter) were given to each eye between the retinal vessels around the optic nerve head. […]
On day 10, rats were sacrificed with 100% CO2, and blood vessels were labeled by vascular perfusion with 10 mg/ml FITC-dextran (MW 2×10^6). Using an epifluorescence microscope (20×) coupled to a spot digital camera and a PC, images were obtained from the flat mounts of the RPE-choroid-sclera from each eye, and the area occupied by hyperfluorescent neovessels within each laser lesion was measured using ImagePro 4 software.
as §1

T1 sequence (P35968 786-1356): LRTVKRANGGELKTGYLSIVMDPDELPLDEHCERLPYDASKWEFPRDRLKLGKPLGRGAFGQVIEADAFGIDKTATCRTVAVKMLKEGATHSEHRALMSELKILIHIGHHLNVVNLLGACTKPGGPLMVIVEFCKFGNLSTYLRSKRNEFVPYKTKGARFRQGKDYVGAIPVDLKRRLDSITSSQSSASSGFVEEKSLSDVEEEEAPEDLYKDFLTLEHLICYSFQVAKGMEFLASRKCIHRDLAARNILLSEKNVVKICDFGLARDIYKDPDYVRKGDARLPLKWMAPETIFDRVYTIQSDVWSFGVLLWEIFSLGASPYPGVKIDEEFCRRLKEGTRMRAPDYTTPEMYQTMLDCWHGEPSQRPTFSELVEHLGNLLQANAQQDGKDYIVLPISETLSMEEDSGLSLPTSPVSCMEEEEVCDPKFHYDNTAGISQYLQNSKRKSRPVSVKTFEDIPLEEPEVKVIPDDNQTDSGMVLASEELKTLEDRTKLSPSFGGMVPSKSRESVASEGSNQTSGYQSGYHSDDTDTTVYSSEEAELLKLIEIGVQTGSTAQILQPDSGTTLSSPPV

Row | Structure (SMILES) | Miles Assay % inhibition ([1]; 75 mg/kg, corn oil, oral) [%] | inhibition at 10 µM ([2]; Homo sapiens) [%] | IC50 [3] [µM] | CNV Assay % inhibition ([4]; 80 mg/kg (sid), corn oil, oral) [%] | CNV Assay ID50 ([4]; oral dose for 50% inhibition) [mg/kg] | Miles Assay % inhibition ([1]; 75 mg/kg, PEG400, oral) [%] | CNV Assay % inhibition ([4]; 40 mg/kg (sid), corn oil, oral) [%] | also measured
1 | CCN(CC)CCCOc1ccc(NC=C2C(=O)Nc3cc(F)ccc32)cc1 [Example 234, 3-{[4-(3-Diethylamino-propoxy)-phenylamino]-methylene}-6-fluoro-1,3-dihydro-indol-2-one] | 95 | 96.1 | 0.11 | 97 | 19 | – | – | CNV Assay % inhibition ([4]; 8.6 mg/kg (sid), corn oil, oral): 18%; CNV Assay % inhibition ([4]; 35 mg/kg (sid), corn oil, oral): 76%
2 | CC1CN(c2ccc(NC=C3C(=O)Nc4ccccc43)cc2)CC(C)O1 (centres unmarked) [Example 159, 3-{[4-(2,6-Dimethyl-morpholin-4-yl)-phenylamino]-methylene}-1,3-dihydro-indol-2-one] | – | 97.4 | 0.35 | – | – | 91 | – | IC50 [2]: 0.58 µM; IC50 ([2]; Homo sapiens): ≤ 1 µM; CNV Assay % inhibition ([4]; 100 mg/kg (sid), 10% DMAC, 10% NMP, 80% PEG400, oral): 41%
3 | O=C1Nc2cc(F)ccc2C1=CNc1ccc(OCCCN2CCCCC2)cc1 [Example 239, 6-Fluoro-3-{[4-(3-piperidin-1-yl-propoxy)-phenylamino]-methylene}-1,3-dihydro-indol-2-one] | 100 | 97.7 | 0.15 | – | – | – | 56 | –
4 | O=C1Nc2ccccc2C1=CNc1ccc(NCCN2CCOCC2)cc1 [Example 235, 3-{[4-(2-Morpholin-4-yl-ethylamino)-phenylamino]-methylene}-1,3-dihydro-indol-2-one] | 99 | 98.2 | 0.24 | – | – | – | 63 | –
5 | O=C1Nc2ccccc2C1=CNc1ccc(OCCCN2CCCCC2)cc1 [Example 218, 3-{[4-(3-Piperidin-1-yl-propoxy)-phenylamino]-methylene}-1,3-dihydro-indol-2-one] | 97 | 98.1 | 0.17 | 99 | 17 | 99 | – | CNV Assay % inhibition ([4]; 9.3 mg/kg (sid), corn oil, oral): 33%; CNV Assay % inhibition ([4]; 38.5 mg/kg (sid), corn oil, oral): 68%
6 | O=C1Nc2ccccc2C1=CNc1ccc(N2CCOCC2)cc1 [Example 40] | 47 | 96.7 | 0.25 | – | – | 100 | – | Miles Assay % inhibition ([1]; 1 mg/kg, I.V. bolus in 20% methyl cyclodextrin, preincubation period 0.5 h): 0%; Miles Assay % inhibition ([1]; 1 mg/kg, I.V. bolus in 20% methyl cyclodextrin, preincubation period 1 h): 0%; Miles Assay % inhibition ([1]; 1 mg/kg, I.V. bolus in 20% methyl cyclodextrin, preincubation period 2 h): 0%; Miles Assay % inhibition ([1]; 10 mg/kg, 43% methyl cyclodextrin, preincubation period 1 h): 6%; Miles Assay % inhibition ([1]; 75 mg/kg, homogenized corn oil, oral): 40%; Miles Assay % inhibition ([1]; 75 mg/kg, micronized corn oil, oral): 52%; Miles Assay ID50 ([1]; oral dose for 50% inhibition): 18 mg/kg; CNV Assay % inhibition ([4]; 20 mg/kg (bid), PEG400, oral): 95%; CNV Assay % inhibition ([4]; 20 mg/kg (sid), PEG400, oral): 54%; CNV Assay % inhibition ([4]; 40 mg/kg (sid), PEG400, oral): 96%; CNV Assay % inhibition ([4]; 50 mg/kg (bid), corn oil, oral): 92%; CNV Assay % inhibition (toxicity noted) ([4]; 100 mg/kg (sid), PEG400, oral): toxic; CNV Assay % inhibition ([4]; 100 mg/kg (sid), corn oil, oral): 74%; CNV Assay ID50 (mg/kg) ([4]; oral dose for 50% inhibition): ˜20 mg/kg
